Experimental data taken from the supplement of paper PMC10307832.

How the values were obtained:
Test in all cases: relative viability (nuclei count vs DMSO), 5 days (fraction); higher = more cells survive
Carboplatin + Navitoclax = compound: C1CC(C1)(C(=O)O)C(=O)O.[NH2-].[NH2-].[Pt+2] [Carboplatin] + CC1(C)CCC(c2ccc(Cl)cc2)=C(CN2CCN(c3ccc(C(=O)NS(=O)(=O)c4ccc(N[C@H](CCN5CCOCC5)CSc5ccccc5)c(S(=O)(=O)C(F)(F)F)c4)cc3)CC2)C1 [Navitoclax] (partner 0.5 µM)
Procedure, shortened: (§1)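 Values are medians from duplicate plates. Each reflects relative viability, defined as the nuclei count of treated wells over that of vehicle wells. Lung cancer cell lines in 1536-well plates were pin-tool dosed one day after seeding with one drug alone or with a fixed anchor-drug dose plus five library-drug doses (not always all listed) in √10 steps, then fixed, stained and imaged at 4× after 5 days.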

Carboplatin + Phenformin = compound: C1CC(C1)(C(=O)O)C(=O)O.[NH2-].[NH2-].[Pt+2] [Carboplatin] + N=C(N)NC(=N)NCCc1ccccc1 [Phenformin] (partner 250 µM)
Procedure, shortened: as §1

GSK126 + Trametinib = compound: CC[C@H](C)N1C=C(C2=C(C=C(C=C21)C3=CN=C(C=C3)N4CCNCC4)C(=O)NCC5=C(C=C(NC5=O)C)C)C [GSK126] + CC(=O)Nc1cccc(-n2c(=O)n(C3CC3)c(=O)c3c(Nc4ccc(I)cc4F)n(C)c(=O)c(C)c32)c1 [Trametinib] (partner 0.02 µM)
Procedure, shortened: as §1

GSK126 + Luminespib = compound: CC[C@H](C)N1C=C(C2=C(C=C(C=C21)C3=CN=C(C=C3)N4CCNCC4)C(=O)NCC5=C(C=C(NC5=O)C)C)C [GSK126] + CCNC(=O)c1noc(-c2cc(C(C)C)c(O)cc2O)c1-c1ccc(CN2CCOCC2)cc1 [Luminespib] (partner 0.01 µM)
Procedure, shortened: as §1

Row | Cell Line | relative viability (Carboplatin + Navitoclax; first compound 0.08 µM) | relative viability (Carboplatin + Navitoclax; first compound 0.253 µM) | relative viability (Carboplatin + Navitoclax; first compound 0.8 µM) | relative viability (Carboplatin + Navitoclax; first compound 2.53 µM) | relative viability (Carboplatin + Navitoclax; first compound 8 µM) | relative viability (Carboplatin + Phenformin; first compound 0.08 µM) | relative viability (Carboplatin + Phenformin; first compound 0.253 µM) | relative viability (Carboplatin + Phenformin; first compound 0.8 µM) | relative viability (Carboplatin + Phenformin; first compound 2.53 µM) | relative viability (Carboplatin + Phenformin; first compound 8 µM) | relative viability (GSK126 + Trametinib; first compound 0.08 µM) | relative viability (GSK126 + Trametinib; first compound 0.253 µM) | relative viability (GSK126 + Trametinib; first compound 0.8 µM) | relative viability (GSK126 + Trametinib; first compound 2.53 µM) | relative viability (GSK126 + Trametinib; first compound 8 µM) | relative viability (GSK126 + Luminespib; first compound 0.08 µM) | relative viability (GSK126 + Luminespib; first compound 0.253 µM) | relative viability (GSK126 + Luminespib; first compound 0.8 µM) | relative viability (GSK126 + Luminespib; first compound 2.53 µM) | relative viability (GSK126 + Luminespib; first compound 8 µM)
1 | NCI-H441 | 0.657 | 1.19 | 0.447 | 0.545 | 0.526 | 0.769 | 0.963 | 1 | 0.876 | 0.839 | 0.538 | 0.471 | 0.571 | 0.483 | 0.343 | 0.361 | 0.283 | 0.28 | 0.35 | 0.349
2 | NCI-H1395 | 1.16 | 1.2 | 0.799 | 0.845 | 0.591 | 0.476 | 0.446 | 0.497 | 0.379 | 0.402 | 1.07 | 0.955 | 1.05 | 0.994 | 0.964 | 0.64 | 0.62 | 0.606 | 0.689 | 0.545
3 | NCI-H727 | 0.487 | 0.393 | 0.426 | 0.441 | 0.324 | 0.504 | 0.652 | 0.454 | 0.497 | 0.365 | 0.4 | 0.4 | 0.424 | 0.39 | 0.412 | 0.482 | 0.375 | 0.421 | 0.345 | 0.336
4 | NCI-H1734 | 0.873 | 0.905 | 0.873 | 0.729 | 0.676 | 0.463 | 0.479 | 0.364 | 0.356 | 0.364 | 0.801 | 0.63 | 0.662 | 0.731 | 0.766 | 0.179 | 0.231 | 0.117 | 0.176 | 0.213
